Where a name gives a salt, the structure may show the parent alone. Read-outs that look alike come from different tables or passages of the source.
Experiments:
P. aeruginosa 6719 = assay: In vivo antibacterial activity (PD50); details: Pseudomonas aeruginosa, 6719, sc
C. freundii 8ASM = assay: In vivo antibacterial activity (PD50); details: Citrobacter freundii, sc, challenge 1000 LD50s, 1 treatment, Table 11
P. aeruginosa 6799 = assay: In vivo antibacterial activity (PD50); details: Pseudomonas aeruginosa, 6799, sc, sc, 2 treatments, read-out: PD50
S. aureus Smith = assay: In vivo antibacterial activity (PD50); details: Staphylococcus aureus, sc
K. pneumoniae HE7 = assay: In vivo antibacterial activity (PD50); details: Klebsiella pneumoniae, HE7, sc, 2 treatments
P. aeruginosa 6720 = assay: In vivo antibacterial activity (PD50); details: Pseudomonas aeruginosa, 6720, sc, 2 treatments
S. pneumoniae SC = assay: In vivo antibacterial activity (PD50); details: Streptococcus pneumoniae
E. aerogenes 83 = assay: In vivo antibacterial activity (PD50); details: Klebsiella aerogenes, sc, Table 9
E. coli 387-1 = assay: In vivo antibacterial activity (PD50); details: Escherichia coli, 3871; sc; challenge 127 LD50s; 1 treatment; Table 11
S. marcescens S5 = assay: In vivo antibacterial activity (PD50); details: Serratia marcescens, sc, Table 9
S. pyogenes 503-782 = assay: In vivo antibacterial activity (PD50); details: Streptococcus pyogenes, 503782; sc; Table 9
P. aeruginosa POW151 = assay: In vivo antibacterial activity (PD50); details: Pseudomonas aeruginosa, sc, Table 9
P. mirabilis 190 = assay: In vivo antibacterial activity (PD50); details: Proteus mirabilis, sc, challenge 10^4 LD50s, 1 treatment, Table 11
E. coli 4 = assay: In vivo antibacterial activity (PD50); details: Escherichia coli, sc, Table 9
S. aureus Giorgio = assay: In vivo antibacterial activity (PD50); details: Staphylococcus aureus; sc; Table 9
S. schottmuelleri = assay: In vivo antibacterial activity (PD50); details: sc; challenge 163 LD50s; 1 treatment; Table 11
Protocol: (§1) In Tables 9-14, the results of the in vivo activity against certain microorganisms of compounds I, M and N as given. […] The results in these Tables and the PD50 's were determined by the procedure set forth on page 160 in Beskid et al., Antimicrobial Agents and Chemotherapy, Vol. 20, No. 2 pp. 159-167 (Aug. 1981) for "in vivo studies".

E. cloacae 214 = assay: In vivo antibacterial activity (PD50); details: Enterobacter cloacae, sc, challenge 3.8 LD50s, 2 treatments, Table 11
Protocol: as §1

P. aeruginosa 6148B = assay: In vivo antibacterial activity (PD50); details: Pseudomonas aeruginosa, sc
E. coli 5152 = assay: In vivo antibacterial activity (PD50); details: Escherichia coli, 5152, sc
K. pneumoniae 8357 = assay: animal or person; type: in vivo; details: Klebsiella pneumoniae, 8357, sc, read-out: PD50
S. marcescens S3 = assay: In vivo antibacterial activity (PD50); details: Serratia marcescens, S3, sc, read-out: PD50
S. marcescens SM = assay: In vivo antibacterial activity (PD50); details: sc; for ED50: Serratia marcescens
S. pneumoniae 6302 = assay: In vivo antibacterial activity (PD50); details: Streptococcus pneumoniae, 6302, sc
P. vulgaris 100 = assay: In vivo antibacterial activity (PD50); details: Proteus vulgaris; sc; challenge 100 LD50s; 1 treatment; Table 11
S. pneumoniae 6301 = assay: In vivo antibacterial activity (PD50); details: Streptococcus pneumoniae, sc, Table 9
E. coli 736 = assay: In vivo activity alone and in combination (PD50, FIC); details: Escherichia coli, sc, alone
[1] = challenge 2290 LD50s, 2 treatments, Table 11
[2] = challenge 48 LD50s, 2 treatments, Table 10
[3] = challenge 70 LD50s, 2 treatments, Table 11
[4] = challenge 100 LD50s, 2 treatments, Table 10
[5] = challenge 32 LD50s, 2 treatments, Table 11
[6] = challenge 2717 LD50s, 2 treatments, Table 10
[7] = challenge 4780 LD50s, 2 treatments, Table 11
[8] = challenge 489 LD50s, 2 treatments, Table 11
[9] = challenge 1000 LD50s, 1 treatment, Table 11

## CC1(C)S[C@@H]2[C@H](/N=C/N3CCCCCC3)C(=O)N2[C@H]1C(=O)O [Amdinocillin, amdinocillin, reference compound]
P. aeruginosa 6719; [1]
  ED50: < 20 mg/kg
C. freundii 8ASM
  ED50: 0.76 mg/kg
P. aeruginosa 6799; challenge 48 LD50s, Table 10
  ED50: 117 mg/kg
P. aeruginosa 6799; challenge 71 LD50s, Table 11
  ED50: > 250 mg/kg
S. aureus Smith; Table 9
  ED50: 69 mg/kg
S. aureus Smith; [2]
  ED50: 22 mg/kg
S. aureus Smith; [3]
  ED50: 13 mg/kg
S. aureus Smith; [4]
  ED50: 12 mg/kg
K. pneumoniae HE7; challenge 750 LD50s, Table 10
  ED50: > 250 mg/kg
K. pneumoniae HE7; challenge 1000 LD50s, Table 11
  ED50: > 250 mg/kg
P. aeruginosa 6720; challenge 35 LD50s, Table 11
  ED50: > 250 mg/kg
P. aeruginosa 6720; challenge 3511 LD50s, Table 10
  ED50: > 250 mg/kg
S. pneumoniae SC; Table 9, read-out: PD50
  ED50: < 2 mg/kg
E. aerogenes 83
  ED50: > 250 mg/kg
E. coli 387-1
  ED50: < 0.2 mg/kg
S. marcescens S5
  ED50: > 250 mg/kg
S. pyogenes 503-782
  ED50: 80 mg/kg
P. aeruginosa POW151
  ED50: 143 mg/kg
P. mirabilis 190
  ED50: 117 mg/kg
E. coli 4
  ED50: 4.6 mg/kg
S. aureus Giorgio
  ED50: > 250 mg/kg
S. schottmuelleri
  ED50: 0.25 mg/kg
E. cloacae 214
  ED50: < 10 mg/kg
P. aeruginosa 6148B; [5]
  ED50: > 250 mg/kg
E. coli 5152; Table 9
  ED50: > 250 mg/kg
E. coli 5152; [6]
  ED50: 84 mg/kg
E. coli 5152; [7]
  ED50: 150 mg/kg
K. pneumoniae 8357
  ED50: 6.7 mg/kg
S. marcescens S3
  ED50: 2.7 mg/kg
S. marcescens SM; Table 9
  ED50: > 250 mg/kg
S. marcescens SM; [8]
  PD50: > 250 mg/kg
S. pneumoniae 6302; Table 9
  ED50: 204 mg/kg
S. pneumoniae 6302; [9]
  ED50: > 250 mg/kg
P. vulgaris 100
  ED50: 45 mg/kg
S. pneumoniae 6301
  ED50: 192 mg/kg

## CC1(C)S[C@@H]2[C@H](N=CN3CCC(CCCn4ccnc4N)CC3)C(=O)N2[C@H]1C(=O)O [I, [2S-(2alpha,5alpha,6beta)]-6-[[[4-[3-(2-amino-1H-imidazol-1-yl)propyl]piperidinyl]methylene]amino]-3,3-dimethyl-7-oxo-4-thia-1-azabicyclo[3.2.0]hpetane-2-carboxylic acid hydrochloride]
E. coli 736
  ED50: 0.05 mg/kg
S. aureus Smith; Table 9
  ED50: 61 mg/kg
S. pneumoniae SC; read-out: PD50
  ED50: 3.6 mg/kg
E. aerogenes 83
  ED50: > 250 mg/kg
S. marcescens S5
  ED50: > 250 mg/kg
S. pyogenes 503-782
  ED50: 59 mg/kg
P. aeruginosa POW151
  ED50: 111 mg/kg
E. coli 4
  ED50: 1.9 mg/kg
S. aureus Giorgio
  ED50: > 250 mg/kg
E. coli 5152; Table 9
  ED50: > 250 mg/kg
S. marcescens SM; Table 9
  ED50: > 250 mg/kg
S. pneumoniae 6302; Table 9
  ED50: 202 mg/kg
S. pneumoniae 6301
  ED50: > 250 mg/kg

## CC1(C)S[C@@H]2[C@H](N=CN3CCC(CC4=NCCN4)CC3)C(=O)N2[C@H]1C(=O)O [M, [2S-(2alpha,5alpha,6beta)]-6-[[[4-[(4,5-dihydro-1H-imidazol-2-yl)methyl]-1-piperidinyl]methylene]amino]-3,3-dimethyl-7-oxo-4-thia-1-azabicyclo[3.2.0]heptane-2-carboxylic acid hydrochloride]
P. aeruginosa 6719; challenge 2249 LD50s, 3 treatments, Table 10
  ED50: 34 mg/kg
P. aeruginosa 6799; challenge 48 LD50s, Table 10
  ED50: > 250 mg/kg
S. aureus Smith; [2]
  ED50: < 5 mg/kg
S. aureus Smith; [4]
  ED50: 6.7 mg/kg
K. pneumoniae HE7; challenge 750 LD50s, Table 10
  ED50: 71 mg/kg
P. aeruginosa 6720; challenge 3511 LD50s, Table 10
  ED50: 29 mg/kg
P. aeruginosa 6148B; challenge 4.5 LD50s, 3 treatments, Table 10
  ED50: < 20 mg/kg
P. aeruginosa 6148B; challenge 33 LD50s, 3 treatments, Table 10
  ED50: < 20 mg/kg
E. coli 5152; [6]
  ED50: 134 mg/kg

## CC1(C)S[C@@H]2[C@H](N=CN3CCC(CCC4=NCCN4)CC3)C(=O)N2[C@H]1C(=O)O [N, [2S-(2alpha,5alpha,6beta)]-6-[[[4-[4,5-dihydro-1H-imidazol-2-yl)ethyl]-1-piperidinyl]methylene]amino]-3,3-dimethyl-7-oxo-4-thia-1-azabicyclo[3.2.0]heptane-2-carboxylic acid hydrochloride]
P. aeruginosa 6719; [1]
  ED50: 22 mg/kg
C. freundii 8ASM
  ED50: 0.22 mg/kg
P. aeruginosa 6799; challenge 71 LD50s, Table 11
  ED50: > 250 mg/kg
S. aureus Smith; [3]
  ED50: 12 mg/kg
K. pneumoniae HE7; challenge 1000 LD50s, Table 11
  ED50: > 250 mg/kg
P. aeruginosa 6720; challenge 35 LD50s, Table 11
  ED50: 20 mg/kg
E. coli 387-1
  ED50: < 0.2 mg/kg
P. mirabilis 190
  ED50: 140 mg/kg
S. schottmuelleri
  ED50: < 0.05 mg/kg
E. cloacae 214
  ED50: < 10 mg/kg
P. aeruginosa 6148B; [5]
  ED50: 37 mg/kg
E. coli 5152; [7]
  ED50: 30 mg/kg
K. pneumoniae 8357
  ED50: 6.2 mg/kg
S. marcescens S3
  ED50: < 0.5 mg/kg
S. marcescens SM; [8]
  ED50: 19 mg/kg
S. pneumoniae 6302; [9]
  ED50: 78 mg/kg
P. vulgaris 100
  ED50: 67 mg/kg
